From patent US8148371B2, “Adenine compound and use thereof” (Dainippon Sumitomo Pharma Co., Ltd., priority 2002, dated 2012) come the findings set out here.

One series has as its system plasma esterase. To be noted: rat plasma, 37° C., 15 minutes.
Series [1] in a line: Metabolic stability on liver S9 of rat. The conditions noted are these: 37° C.
Procedure: The compound of the present invention is added to liver S9 solution, and the mixture is incubated at 37±0.5° C. for 5 minutes to 2 hours. By quantitatively analyzing at the definite interval the amount of the compound of the present invention remaining in the liver S9 solution with HPLC (high performance liquid chromatography), etc., the constant of quenching velocity is calculated and the half life is calculated.
The reaction on river S9 of a rat was carried out on a 96-well plate by using a robot for screening by Tecan Company. S9 solution was prepared by adding to 10 ml of liver S9 of a rat, 20 ml of 250 mM Kpi (pH 7.4) and 20 ml of deionized water. Cofactor solution was prepared by dissolving NADPH (220 mg) in deionized water (40.5 ml) to give finally a 6 mM solution. IS (Internal Standard) solution was prepared by adding 300 μL of IS solution (1 mM DMSO solution) to 30 ml of acetonitrile solution (100 times dilution). The test compound (1 μM DMSO solution) was dissolved in an incubator at 37° C., 35 μL of it was poured into each well of a 96-well plate (24 samples/plate and then, plates (a sample plate, a 96 well-plate for dilution, deep well plates for reaction and recovering, a plate for extraction of the solid phase) and the test samples (S9 solution, Cofactor solution, IS (Internal Standard) solution, Stop solution, acetonitrile for elution) were set to the specified position in the booth of the robot. The reaction started (the concentration of the test compound was 1 μM) and the mixture was incubated at 37° C. under stirring. The solid phase was extracted and at the same time the internal standard for analysis was added. To the recovered sample (200 μL/well) was added 50 μL of acetonitrile per each well and to 2 plates of FALCON Deep well were poured 100 μL of the solution per well. By subjecting to the LC/MS analysis, the chromatogram of the test sample and the internal standard were described and the peak area was calculated. And then, the stability (residual rate after reaction) was calculated by the internal standard method.
The test system of the next series is cells of rat spleen. Nature of the series: cells. The format is cell-based, SD rat. To be noted: 24 h, read-out: Minimum effective concentration (interferon inducing activity).
For another series, the system named is cells of mouse spleen. Nature of the series: cells. Type of series: cell-based, C3H/HeJ mouse. The conditions noted are these: for minimal effective concentration: Mus musculus, 24 h, read-out: Minimum effective concentration (interferon inducing activity).
Series [2] relates to type 2 herpes virus (HSV-2). Nature of the series: Anti HSV activity in mouse infected with HSV-2 in its vagina. To be noted: 9 days after virus-infection. The format is in vivo, BALB/c female mouse. On the procedure:
Compound A was spread to a vagina of a female mouse (BALB/c) to which previously Depo-Provera was administered, and on next day, HSV-2 was infected to the vagina. Nine days later, the rate of survival or death of mice was observed and compared.
On the back of a BALB/c female mouse (6 weeks old: Nippon SLC) 3 mg of Depo-Provera/mouse (Registered Trade Mark) was dermally administered and the mice were fed for 6 days. By doing this the sexual cycle was tuned and the sensitivity between mice to herpes virus was balanced. The slime of mouse vagina was removed by a cotton swab for baby, and the ointment (20 mg) containing 0.5% of compound of Example 20 or the ointment (10 mg) containing 5% of compound of Example 20 was spread to the vagina (corresponding 0.1 mg and 0.5 mg per mouse of the compound of Example). As a control, the placebo ointment not containing the compound was spread as well. As the ointment, the base consisting of 80% Vaseline and 20% liquid paraffin were used. On the next day, the slime of mouse vagina was removed by a cotton swab for baby and then, 2×10^4 pfu type 2 herpes virus (HSV-2)(10 μl/mouse) was administered to the vagina by pipette. After infection the death or survival of the mice was observed.

The test system of the next series is IL-4. Nature of the series: IL-4 in BALF supernatant on an asthma modeled mouse (ELISA). Type of series: in vivo, C57BL/6 mouse. To be noted: 10 mg/kg nasally. As to the method:
(§1) C57BL/6 mouse was immunized by dermally administering denatured ovalbumin by heating (40 mg). Fourteen days later after the first immunization, ovalbumin (100 μg) was nasally busted. Twenty one days later after the first immunization, the solution (1 ml/kg) prepared by suspending the test compound (10 mg/kg) in physiological saline was nasally administered (10 μl/10 g/body weight). After 2 hours ovalbumin (100 μg) was nasally challenged. After 18 hours, bronchoalveolar lavege fluid (BALF) was collected, and the total number of leucocytes in BALF and fractioned leukocyte in the cytospin sample were measured. By ELISA method, IL-4 and IL-5 in the supernatant were measured. The number of leucocytes (inhibition %) was shown in Table 5 and the production inhibition activity of IL-4 and IL-5 (inhibition % to control) was shown in Table 6.

A further series has as its system IL-5. Nature of the series: IL-5 in BALF supernatant on an asthma modeled mouse (ELISA). The format is in vivo, C57BL/6 mouse. The conditions noted are these: 10 mg/kg nasally. On the procedure:
as §1

The next series concerns leucocytes in BALF. Nature of the series: Amount of leucocytes in bronchoalveolar lavage fluid (BALF) on an asthma modeled mouse. To be noted: 10 mg/kg nasally, BALF 18 hours after ovalbumin challenge. The format is in vivo, C57BL/6 mouse. As to the method:
as §1

Where [3] appears, read: rat liver S9, test compound 1 μM.
[4] abbreviates: rat liver S9, test compound 10 μM (*).

Where two headings read alike, the source gives them in different places. Marks after values point to notes of the source that are not given here.

Procedure for plasma esterase: The compound of the present invention is added to the serum solution, and the mixture is incubated at 37±0.5° C. for 5 minutes to 2 hours. By quantitatively analyzing at the definite interval the amount of the compound of the present invention remaining in the serum solution with HPLC (high performance liquid chromatography), etc., the constant of quenching velocity calculated and the half life is calculated.
The serum herein means the supernatant fraction obtained by excluding hemocytes and blood coagulation factor from blood by centrifugation, etc. The serum diluted with buffer, etc. can be used.
The metabolic stability of the test compound was presented by the residual amount (%) per the concentration of pre-metabolization.

As for `CCCCOc1nc(N)c2nc(O)n(Cc3ccc(CC(=O)OC(C)C)cc3)c2n1` [Example 21, 2-Butoxy-8-hydroxy-9-(4-isopropoxycarbonylmethylbenzyl)adenine], the results for the Residual rate (in the series on plasma esterase (test compound 1 μM (*)); in series [1] (setting [3])) were 0* % and 26%, respectively. For the same compound, the minimal effective concentration was determined as 0.001 µM in the series with cells of rat spleen and 0.003 µM in the series on cells of mouse spleen.

`CCOC(=O)C(C)Sc1nc(N)c2nc(O)n(Cc3ccccc3)c2n1` (stereo not drawn) [Example 53, 9-Benzyl-8-hydroxy-2-(1-ethoxycarbonylethyl)thioadenine]: the Residual rate was determined as 0% in the series with plasma esterase (test compound 10 μM) and 2% in series [1] (setting [3]). In the series with cells of mouse spleen, the minimal effective concentration was determined as 0.1 µM.

For the compound `CCCCOc1nc(N)c2[nH]c(=O)n(Cc3cccc(C(=O)OC)c3)c2n1` [Example 1, 2-Butoxy-8-hydroxy-9-(3-methoxycarbonylbenzyl)adenine], the Residual rate with plasma esterase (test compound 10 μM) worked out at 32%; in series [1] (setting [3]) it was 7%. The minimal effective concentration in the series with cells of rat spleen is 0.0003 µM; in the series with cells of mouse spleen, less than 0.001 µM.

Take `Nc1nc(SCC(=O)OCC(F)(F)F)nc2c1nc(O)n2Cc1ccccc1` [Example 48, 9-Benzyl-2-(2,2,2-trifluoroethoxycarbonylmetyl)thio-8-hydroxyadenine]: the Residual rate (with plasma esterase (test compound 10 μM); in series [1] (setting [3])) was 0% throughout. Moreover, the “Minimum effective concentration (interferon inducing activity)” value with cells of mouse spleen was 0.3 µM.

Take `CCCCOc1nc(N)c2nc(O)n(Cc3ccc(CC(=O)OC)cc3)c2n1` [Example 20, 2-Butoxy-8-hydroxy-9-(4-methoxycarbonylmethylbenzyl)adenine]: the Residual rate (with plasma esterase (test compound 10 μM); in series [1] (setting [3])) was 0% each time. Also, the figures for the minimal effective concentration in the series on cells of rat spleen and with cells of mouse spleen were 0.0001 µM and 0.003 µM, respectively. In series [2] (5% ointment (0.5 mg per mouse) spread to vagina), this compound displayed a survived rate of 100%. Also, in series [2] (ointments containing 0.5% and 5%), the “survived rate comparing with a control group” value was “clearly higher survived rate”.

With `CCOC(=O)Cc1nc(N)c2nc(O)n(Cc3ccccc3)c2n1` [Example 30, 9-Benzyl-2-ethoxycarbonylmethyl-8-hydroxyadenine], the Residual rate in the series with plasma esterase (test compound 10 μM) is 0%; in series [1] (setting [3]), 4%. Further, the minimal effective concentration in the series on cells of rat spleen and in the series with cells of mouse spleen was 0.01 µM in each case.

For `CCC(=O)OCC(=O)[C@@]1(OC(=O)CC)[C@@H](C)C[C@H]2[C@@H]3CCC4=CC(=O)C=C[C@]4(C)[C@@]3(Cl)[C@@H](O)C[C@@]21C` [Beclometasone dipropionate], the “IL-4 production inhibition activity (inhibition % to control)” value in the series with IL-4 is listed as 97%. The “IL-5 production inhibition activity (inhibition % to control)” value with IL-5 was 100%. In the series on leucocytes in BALF, the “Acidophile (inhibition %)” value stood at 89%, the “Netrophile (inhibition %)” value is recorded as 90% and the “Number of total leukocyte (inhibition %)” value came out at 92%.

Turning to `Nc1nc(SCC(=O)N2CCCCC2)nc2c1nc(O)n2Cc1ccccc1` [Example 51, 9-Benzyl-8-hydroxy-2-(1-piperidinocarbonylmethyl)thioadenine], in series [1] (setting [3]), the Residual rate is 0%. For the same compound, in the series with cells of mouse spleen, the minimal effective concentration was 0.1 µM.

As for `COC(=O)CSc1nc(N)c2nc(O)n(Cc3ccccc3)c2n1` [Example 40, 9-Benzyl-8-hydroxy-2-(methoxycarbonylmethyl)thioadenine], the Residual rate with plasma esterase (test compound 10 μM) is 0%. The minimal effective concentration in the series with cells of rat spleen and in the series on cells of mouse spleen was 0.01 µM in each case.

In the series on plasma esterase (test compound 10 μM), `CCCCOc1nc(N)c2nc(O)n(Cc3ccc(N4CCCC(C(=O)OCC)C4)nc3)c2n1` (stereo not drawn) [Example 25, 2-Butoxy-8-hydroxy-9-{6-(3-ethoxycarbonyl-1-piperidyl)-3-pyridylmethyl}adenine] came in with a Residual rate of 16%. The minimal effective concentration in the series on cells of mouse spleen amounted to 0.003 µM.

In the series with plasma esterase (test compound 10 μM), `COC(=O)CNc1nc(N)c2nc(O)n(Cc3ccc(C)nc3)c2n1` [Example 32, 8-Hydroxy-2-methoxycarbonylmethylamino-9-{(6-methyl-3-pyridyl)methyl}adenine] registered a Residual rate of 0%. Also, the minimal effective concentration with cells of mouse spleen turned out to be 0.01 µM.

Regarding `COC(=O)Cc1nc(N)c2nc(O)n(Cc3ccccc3)c2n1` [Example 29, 9-Benzyl-8-hydroxy-2-methoxycarbonylmethyladenine], in the series with plasma esterase (test compound 10 μM), the Residual rate is on record as 0%. Also, the minimal effective concentration in the series with cells of rat spleen and with cells of mouse spleen was 0.01 µM in each case.

With `Nc1nc(SC2CCOC2=O)nc2c1nc(O)n2Cc1ccccc1` (stereo not drawn) [Example 59, 9-Benzyl-2-(2-butyrolactino)thio-8-hydroxyadenine], the Residual rate in the series with plasma esterase (test compound 10 μM) was found to be 0%; in series [1] (setting [3]), 7%. Also, in the series with cells of mouse spleen, the “Minimum effective concentration (interferon inducing activity)” value came to 0.1 µM.

With `CCCCOc1nc(N)c2nc(O)n(Cc3ccc(C(=O)OC)o3)c2n1` [Example 15, 2-Butoxy-8-hydroxy-9-(5-methoxycarbonylfurfuryl)adenine], the “IL-4 production inhibition activity (inhibition % to control)” value in the series on IL-4 was 80%. The Residual rate with plasma esterase (test compound 10 μM) was determined as 0%. Besides, the Residual rate in series [1] (setting [3]) worked out at 11%. For the same compound, the minimal effective concentration in the series on cells of rat spleen worked out at 0.001 µM. Moreover, the “IL-5 production inhibition activity (inhibition % to control)” value in the series on IL-5 stood at 75%. In the series with leucocytes in BALF, the “Acidophile (inhibition %)” value turned out to be 101%, the “Netrophile (inhibition %)” value was −92% and the “Number of total leukocyte (inhibition %)” value is on record as 84%. For the same compound, the minimal effective concentration in the series with cells of mouse spleen stood at 0.003 µM.

For `CCOC(=O)CC(=O)CSc1nc(N)c2nc(O)n(Cc3ccccc3)c2n1` [Example 58, 9-Benzyl-2-(ethoxycarbonylmethylcarbonylmethyl)thio-8-hydroxyadenine], the Residual rate with plasma esterase (test compound 10 μM) stood at 0%. Also, the minimal effective concentration in the series on cells of mouse spleen worked out at 0.1 µM.

Turning to `CCCCOc1nc(N)c2nc(O)n(Cc3ccc(C(=O)OC(C)C)o3)c2n1` [Example 16, 2-Butoxy-8-hydroxy-9-(5-isopropoxycarbonylfurfuryl)adenine], the Residual rate (in the series on plasma esterase (test compound 10 μM); in series [1] (setting [3])) was 0% throughout. In the series on cells of mouse spleen, the minimal effective concentration was found to be 0.003 µM.

Turning to `COC(=O)CCSc1nc(N)c2nc(O)n(Cc3ccccc3)c2n1` [Example 54, 9-Benzyl-8-hydroxy-2-(2-methoxycarbonylethyl)thioadenine], in the series with plasma esterase (test compound 10 μM), the Residual rate is 0%. The minimal effective concentration with cells of rat spleen turned out to be 0.01 µM; in the series with cells of mouse spleen, 0.1 µM.

For `CCCCOc1nc(N)c2nc(O)n(Cc3cccc(C(=O)OCCO)c3)c2n1` [Example 6, 2-Butoxy-8-hydroxy-9-{3-(2-hydroxyethoxycarbonyl)benzyl}adenine], in the series on plasma esterase (test compound 10 μM), the Residual rate was 14%. In addition, the minimal effective concentration in the series with cells of mouse spleen was less than 0.001 µM.

As to `COC(=O)OCCNc1nc(N)c2nc(O)n(Cc3ccc(C)nc3)c2n1` [Example 34, 8-Hydroxy-2-(2-methoxycarbonyloxyethylamino)-9-{(6-methyl-3-pyridyl)methyl}adenine], the Residual rate with plasma esterase (test compound 10 μM) is 11%; in series [1] (setting [4]), 1* %. Further, in the series on cells of mouse spleen, the minimal effective concentration was determined as 0.1 µM.

In turn, `CCCCOc1nc(N)c2nc(O)n(Cc3cccc(C(=O)OCCN(C)C)c3)c2n1` [Example 7, 2-Butoxy-8-hydroxy-9-{3-(2-dimethylaminoethoxycarbonyl)benzyl}adenine] returned a Residual rate in the series with plasma esterase (test compound 10 μM) of 1%. Further, the minimal effective concentration in the series with cells of mouse spleen is less than 0.001 µM.

`COC(=O)OCCOc1nc(N)c2nc(O)n(Cc3ccc(C)nc3)c2n1` [Example 38, 2-{2-(Methoxycarbonyloxy)ethoxy}-8-hydroxy-9-{(6-methyl-3-pyridyl)methyl}adenine] came in with a Residual rate in the series with plasma esterase (test compound 10 μM) of 2%. The minimal effective concentration with cells of mouse spleen is 0.01 µM.

As to `CC(=O)OCCNc1nc(N)c2nc(O)n(Cc3ccc(C)nc3)c2n1` [Example 33, 2-(2-Acetoxyethylamino)-8-hydroxy-9-{(6-methyl-3-pyridyl)methyl}adenine], in series [1] (setting [4]), the Residual rate was 2* %. Further, the minimal effective concentration with cells of mouse spleen worked out at 0.1 µM.

With `CCCCOc1nc(N)c2nc(O)n(Cc3ccc(N4CCC(C(=O)OCC)CC4)nc3)c2n1` [Example 24, 2-Butoxy-8-hydroxy-9-{6-(4-ethoxycarbonyl-1-piperidyl)-3-pyridylmethyl}adenine], the Residual rate in the series on plasma esterase (test compound 10 μM) worked out at 7%. For the same compound, the minimal effective concentration was 0.0003 µM in the series with cells of rat spleen and less than 0.001 µM in the series on cells of mouse spleen.
